Experimental data reported in patent US20240270800A1, “ANTIMICROBIAL CaNCR PEPTIDE VARIANTS” (Donald Danforth Plant Science Center, priority 2021, published 2024).
Where a SMILES comes first, the peptide text is derived from it. Bridges are numbered along the chain shown (N, C = ends).

System: Botrytis cinerea T-4
Assay: Determination of minimum inhibitory concentration, 96-well plate spore assay with resazurin viability
Assay type: cell-based
Conditions: SFM supplemented with 100 mM NaCl
Description: The fungal strains of Botrytis cinerea T-4 were cultured on V8 growth medium. Fungal spores were harvested by flooding the fungal growth plates with sterile water. The spore suspension was filtered through two layers of Miracloth, centrifuged at 13,600 rpm for 1 min, washed, and re-suspended in low-salt Synthetic Fungal Medium (SFM) (U.S. Pat. No. 6,316,407). The spore suspension of each fungal pathogen was adjusted to equivalent spore density using a hemocytometer ([…]).
Anti-fungal activity of NCR13_WT and NCR13_V2 against B. cinerea was assessed using the 2-fold dilution series of each peptide. The antifungal activity was determined spectrophotometrically using the 96-well plate assay (Sagaram et al., 2011). The 45 μL of the peptide dilution ([…]) was added to each well of the microtiter plate containing 45 μL of (˜10^5 spores/ml) the spore suspension. The quantitative fungal growth inhibition was determined by measuring the absorbance at 595 nm using a (Tecan Infinite M200 ProTecan Systems Inc., San Jose, CA) microplate reader after 48 h. The fungal cell viability was determined using the resazurin cell viability assay (Chadha S & Kale SP, 2015; Li et al.; 2019). After incubation of the pathogen/peptide mixture for 48 h, 10 μl of 0.1% resazurin solution was added to each well and re-incubated overnight. […]

SMILES: CC[C@H](C)[C@@H]1NC(=O)[C@@H]2CSSC[C@H](NC(=O)[C@@H]3CCCN3C(=O)[C@H](CCCCN)NC(=O)[C@@H](N)[C@@H](C)O)C(=O)N[C@@H](CCC(N)=O)C(=O)N[C@@H](CO)C(=O)N[C@@H](CC(=O)O)C(=O)N[C@@H](CCCCN)C(=O)N[C@@H](CC(=O)O)C(=O)N[C@H]3CSSC[C@H](NC(=O)[C@H](Cc4ccccc4)NC(=O)CNC(=O)[C@H](CC(N)=O)NC1=O)C(=O)N[C@@H](CCCCN)C(=O)N[C@H](C(=O)N[C@H](C(=O)N[C@@H](CCCNC(=N)N)C(=O)O)C(C)C)CSSC[C@H](NC(=O)[C@H](C)NC(=O)[C@H](Cc1ccccc1)NC(=O)[C@H](CCCCN)NC(=O)[C@H](CCCCN)NC3=O)C(=O)N[C@@H](CCCNC(=N)N)C(=O)N[C@@H](CCCCN)C(=O)N1CCC[C@H]1C(=O)N[C@@H](CCCCN)C(=O)N[C@@H](C(C)C)C(=O)N1CCC[C@H]1C(=O)N[C@@H](CCCCN)C(=O)N2 [CaNCR13] (H-TKPCQSDKDCKKFACRKPKVPKCINGFCKCVR-OH; disulfide 4-23, 10-28, 15-30)
- MIC (SFM + 100 mM NaCl): No Activity
